Source: patent US10729759B2, “Fluorocarbon-linked peptide formulation” (priority 2010, dated 2020)
“Also recorded” adds a separate entry of the source. Like-named read-outs stand apart in the source and are kept apart here. Residues, ends and D or L forms follow the SMILES beside them. *: point of attachment. Propanoyl(3-C8F17) = O=C(CCC(F)(F)C(F)(F)C(F)(F)C(F)(F)C(F)(F)C(F)(F)C(F)(F)C(F)(F)F)*

Experiments:
[1] = assay type: physicochemical; conditions: 1.33% mannitol, 0.22 μm PVDF filter; for YIELD % of each FCP following sterile filtration, MIX 1: MIX 1 dispersed in water; for YIELD % of each FCP following sterile filtration, MIX 2: MIX 2 dispersed in water
[2] = assay type: physicochemical; conditions: for Further dilution in Mannitol:Water Solubility: FCP 0.167 mM, 1.33% (w/v) mannitol, cloudiness / particulates; for Dispersion in Water Solubility: FCP 1.333 mM in water, vortexed and sonicated, cloudiness (Clear/Cloudy−/Cloudy/Cloudy+) / particulates
Experimental: The solubility of each FCP in water was assessed. Each FCP was dispersed in 300 μl of water to a final concentration of 1.333 mM and vortexed and sonicated. The typical dispersion conditions were four sequences of three minutes bath sonication interspersed by 30 seconds vortexing. After inspection, the resulting solution was diluted with a mannitol solution (a candidate lyophilisation medium, final concentration of peptide 0.167 mM, 1.33% (w/v) mannitol). Solubility was assessed by visual observation of the cloudiness of the resulting dispersion (scaled: Clear/Cloudy−/Cloudy/Cloudy+) and presence of particulates. […]

[3] = for Ease of solubility, Cycle 1 Vortexing: 10 mg net/ml in 10% (FCP1, 2, 4, 5) or 80% (FCP9, 8) acetic acid; for Ease of solubility, Cycle 1 Sonication / Ease of solubility, Cycle 2 Sonication / Ease of solubility, Cycle 2 Vortexing / Ease of solubility, Cycle 3 Sonication / Ease of solubility, Cycle 3 Vortexing: 10 mg net/ml in 10% or 80% acetic acid; for Visual appearance after dispersion: 10 mg net/ml in AcOH 10% or 80%
[4] = assay type: physicochemical; conditions: for Percentage acetic acid (% v/v): minimum concentration for acceptable dispersibility and solubility: FCP 2 μmol/ml after acetic acid dispersion; for Visual appearance after dispersion: at the listed acetic acid concentration, FCP 2 μmol/ml; for Physical stability of formulation at less than 80% (v/v) acetic acid: gel or soluble particulates formed over time
Experimental: In order to limit the concentration of acetic acid downstream in the formulation process and in the final product, the lowest concentration of acetic acid in water to achieve efficient dispersion and maintain visible solubility was determined for each fluorocarbon-linked peptide. When using mannitol as a cryprotectant, it is important to minimize the acetic acid concentration at the lyophilisation stage in order to achieve a stable and amorphous freeze-dried product. The minimum acetic acid concentration to achieve acceptable dispersibility and solubility of the individual fluorocarbon-linked peptides was determined. The final concentration of fluorocarbon-linked peptide after initial acetic acid dispersion was 2 μmol/ml and after dilution with mannitol, 0.250 μmol/ml.

| SMILES | YIELD % of each FCP following sterile filtration, MIX 1 [1] [%] | Further dilution in Mannitol:Water Solubility [2] | Dispersion in Water Solubility [2] | Ease of solubility, Cycle 1 Vortexing [3] | Ease of solubility, Cycle 1 Sonication [3] | Ease of solubility, Cycle 2 Sonication [3] | Ease of solubility, Cycle 2 Vortexing [3] | Ease of solubility, Cycle 3 Sonication [3] | Ease of solubility, Cycle 3 Vortexing [3] | Visual appearance after dispersion [3] | Percentage acetic acid (% v/v): minimum concentration for acceptable dispersibility and solubility [4] [% v/v] | Visual appearance after dispersion [4] | Physical stability of formulation at less than 80% (v/v) acetic acid [4] | YIELD % of each FCP following sterile filtration, MIX 2 [1] [%] |
| --- | --- | --- | --- | --- | --- | --- | --- | --- | --- | --- | --- | --- | --- | --- |
| CC[C@H](C)[C@H](NC(=O)[C@H](CO)NC(=O)[C@H](CC(C)C)NC(=O)[C@@H](NC(=O)[C@H](CC(N)=O)NC(=O)[C@H](CCCNC(=N)N)NC(=O)[C@H](Cc1ccccc1)NC(=O)[C@H](Cc1c[nH]c2ccccc12)NC(=O)[C@H](CCC(=O)O)NC(=O)[C@@H]1CCCN1C(=O)[C@H](CCC(N)=O)NC(=O)[C@H](CC(N)=O)NC(=O)[C@H](CCCNC(=N)N)NC(=O)[C@@H](NC(=O)[C@@H](NC(=O)[C@H](Cc1ccc(O)cc1)NC(=O)[C@@H](N)CCCCNC(=O)CCC(F)(F)C(F)(F)C(F)(F)C(F)(F)C(F)(F)C(F)(F)C(F)(F)C(F)(F)F)[C@@H](C)CC)[C@@H](C)O)C(C)C)C(=O)N[C@@H](C)C(=O)N1CCC[C@H]1C(=O)N[C@H](C(=O)N[C@@H](CCSC)C(=O)N[C@@H](Cc1ccccc1)C(=O)N[C@@H](CO)C(=O)N[C@@H](CC(N)=O)C(=O)N[C@@H](CCCCN)C(=O)N[C@@H](CCSC)C(=O)N[C@@H](C)C(=O)N[C@@H](CCCNC(=N)N)C(=O)N[C@@H](CC(C)C)C(=O)NCC(=O)N[C@@H](CCCCN)C(=O)NCC(=O)N[C@@H](Cc1ccc(O)cc1)C(=O)N[C@@H](CCSC)C(=O)N[C@@H](Cc1ccccc1)C(=O)N[C@@H](CCC(=O)O)C(N)=O)[C@@H](C)CC [FCP9] | 22.9 | partially soluble; also recorded: Clear/Particulates | Cloudy−/Particulates | Particulates− | Clear | Clear | Clear | Clear | Clear | Clear | 80 | Clear | physically unstable over time | – |
| CC[C@H](C)[C@H](NC(=O)[C@H](C)NC(=O)[C@H](CCSC)NC(=O)[C@H](Cc1c[nH]cn1)NC(=O)[C@@H](N)CCCCNC(=O)CCC(F)(F)C(F)(F)C(F)(F)C(F)(F)C(F)(F)C(F)(F)C(F)(F)C(F)(F)F)C(=O)N[C@H](C(=O)N[C@@H](CCCCN)C(=O)N[C@@H](CCCCN)C(=O)N[C@@H](Cc1ccc(O)cc1)C(=O)N[C@H](C(=O)N[C@@H](CO)C(=O)NCC(=O)N[C@@H](CCCNC(=N)N)C(=O)N[C@@H](CCC(N)=O)C(=O)N[C@@H](CCC(=O)O)C(=O)N[C@@H](CCCCN)C(=O)N[C@@H](CC(N)=O)C(=O)N1CCC[C@H]1C(=O)N[C@@H](CO)C(=O)N[C@@H](CC(C)C)C(=O)N[C@@H](CCCNC(=N)N)C(=O)N[C@@H](CCSC)C(=O)N[C@@H](CCCCN)C(=O)N[C@@H](Cc1c[nH]c2ccccc12)C(=O)N[C@@H](CCSC)C(=O)N[C@@H](CCSC)C(=O)N[C@@H](C)C(=O)N[C@@H](CCSC)C(=O)N[C@@H](CCCCN)C(=O)N[C@@H](Cc1ccc(O)cc1)C(=O)N1CCC[C@H]1C(=O)N[C@H](C(=O)N[C@H](C(=O)N[C@@H](C)C(=O)N[C@@H](CC(=O)O)C(=O)N[C@@H](CCCCN)C(N)=O)[C@@H](C)O)[C@@H](C)CC)[C@@H](C)O)[C@@H](C)CC [FCP1] | 89.9 | partially soluble; also recorded: Clear/Particulates | Cloudy/Particulates | Clear | Clear | Clear | Clear | Clear | Clear | Clear | 10 | Clear | – | – |
| CC[C@H](C)[C@H](NC(=O)[C@H](CC(C)C)NC(=O)[C@H](C)NC(=O)[C@H](CO)NC(=O)[C@H](CCCNC(=N)N)NC(=O)[C@H](C)NC(=O)[C@H](CC(C)C)NC(=O)[C@H](Cc1ccccc1)NC(=O)[C@@H](NC(=O)[C@H](CC(C)C)NC(=O)[C@H](CC(=O)O)NC(=O)[C@H](CCC(=O)O)NC(=O)[C@@H](NC(=O)[C@H](CCC(=O)O)NC(=O)[C@H](C)NC(=O)[C@H](CC(N)=O)NC(=O)CNC(=O)[C@@H]1CCCN1C(=O)[C@H](CC(N)=O)NC(=O)[C@H](CCCNC(=N)N)NC(=O)[C@H](CO)NC(=O)[C@H](CCC(=O)O)NC(=O)[C@H](CCCNC(=N)N)NC(=O)[C@@H](NC(=O)[C@H](CCC(N)=O)NC(=O)[C@H](CC(=O)O)NC(=O)[C@@H](N)CCCCNC(=O)CCC(F)(F)C(F)(F)C(F)(F)C(F)(F)C(F)(F)C(F)(F)C(F)(F)C(F)(F)F)C(C)C)[C@@H](C)CC)[C@@H](C)CC)C(=O)N[C@@H](CC(C)C)C(=O)N[C@@H](CCCNC(=N)N)C(=O)NCC(=O)N[C@@H](CO)C(=O)N[C@H](C(=O)N[C@@H](C)C(=O)N[C@@H](Cc1c[nH]cn1)C(=O)N[C@@H](CCCCN)C(=O)N[C@@H](CO)C(N)=O)C(C)C [FCP4] | 25.1 | fully soluble; also recorded: Clear/No Particulates | fully soluble; also recorded: Clear/No Particulates | Clear | Clear | Clear | Clear | Clear | Clear | Clear | 10 | Clear | – | 82.3 |
| CC[C@H](C)[C@H](NC(=O)[C@H](Cc1ccc(O)cc1)NC(=O)[C@@H](NC(=O)[C@H](CO)NC(=O)[C@H](CO)NC(=O)[C@@H](NC(=O)CNC(=O)CNC(=O)[C@H](C)NC(=O)[C@@H](NC(=O)[C@@H]1CCCN1C(=O)[C@H](CC(C)C)NC(=O)[C@H](Cc1ccccc1)NC(=O)[C@H](CCCNC(=N)N)NC(=O)[C@@H](NC(=O)[C@H](CCCCN)NC(=O)[C@H](CCCNC(=N)N)NC(=O)[C@@H](NC(=O)[C@H](CC(C)C)NC(=O)[C@H](CCC(=O)O)NC(=O)[C@H](CCCNC(=N)N)NC(=O)[C@H](CCC(=O)O)NC(=O)[C@H](CC(C)C)NC(=O)[C@H](CCSC)NC(=O)[C@H](Cc1ccc(O)cc1)NC(=O)[C@H](C)NC(=O)[C@@H](NC(=O)[C@@H](N)CCCCNC(=O)CCC(F)(F)C(F)(F)C(F)(F)C(F)(F)C(F)(F)C(F)(F)C(F)(F)C(F)(F)F)C(C)C)C(C)C)[C@@H](C)O)C(C)C)[C@@H](C)O)C(C)C)C(=O)N[C@@H](CCC(=O)O)C(=O)N[C@H](C(=O)N[C@@H](CC(C)C)C(=O)N[C@@H](Cc1c[nH]cn1)C(=O)N[C@@H](CC(C)C)C(=O)N[C@H](C(=O)N[C@@H](CCC(N)=O)C(=O)NCC(N)=O)[C@@H](C)O)C(C)C [FCP8] (H-K(Propanoyl(3-C8F17))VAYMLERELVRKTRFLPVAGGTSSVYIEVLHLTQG-NH2) | – | insoluble; also recorded: Cloudy/Particulates | Cloudy/Particulates | Particulates+ | Some | – | Some | Clear | – | Clear | 80 | Clear | physically unstable over time | 25.3 |
